{
  "source": "patent US9080199B2",
  "about": "“Method to generate novel bioactive molecules” (priority 2010, dated 2015)",
  "test_system": "S. aureus N315 (MRSA N315)",
  "assay": "Disk / agar diffusion bioactivity test (zone of inhibition) against S. aureus N315",
  "format": "cell-based, Staphylococcus aureus",
  "conditions": "clavu7 extract compounds/fractions, 25-30 μL on 6 mm filter disks on N315 lawn on TSA, 16-20 hours at 30° C.",
  "procedure": "The two compounds were separated from one another by re-injecting the 11 to 11.5 minute fraction into the LC-MS system using an isocratic mobile phase of 30% methanol in water. Once separated, the two compounds were collected, concentrated by evaporating the solvent to a total volume of approximately 50 μL, and tested against S. aureus N315 to definitively determine which one is bioactive. This turned out to be m/z=215, which was identified as holomycin. Bioactivity testing is carried out by first spreading approximately 150 μL of an OD600˜0.01 S. aureus N315 culture in TSB onto a TSA plate to create a lawn of S. aureus N315. Next, 25-30 μL of each sample is deposited onto 6 mm sterile filter disks. The disks are allowed to dry and then placed onto the S. aureus N315 lawn. This plate is incubated for 16-20 hours at 30° C., after which it was examined for the appearance of a zone of inhibition around the disks.\nThe methanol sample was then concentrated further using a vacuum centrifuge (speed-vac or speed-yap) until approximately 100 μL remained. A 25 μL aliquot was then used to test for bioactivity against MRSA N315. This aliquot, which has not yet been fractionated on an HPLC system, is called a “crude extract.” About 40-50 μL of the concentrated sample was also injected into an HPLC-MS system. […]",
  "note": "Entries after “also recorded” stand apart in the source; their conditions may differ.",
  "data": [
    {"smiles": "CC(=O)Nc1c2sscc-2[nH]c1=O", "note": "[holomycin]", "values": [
      {"measurement": "bioactivity against S. aureus N315 (zone of inhibition around disks)", "result": "inhibits growth; also recorded: bioactive"},
      {"measurement": "bioactivity against S. aureus N315 (zone of inhibition around disks)", "setting": "listed as m/z=215 compound", "result": "bioactive"}
    ]}
  ]
}
